Where a name gives a salt, the structure may show the parent alone.
Columns and labels:
[1] = target: factor Xa (Homo sapiens, UniProt P00742); assay: inhibition of the proteolytic activity of factor Xa, chromogenic peptide substrate; type: biochemical; conditions: same method, substrate N-methoxycarbonyl-D-norleucyl-glycyl-L-arginine-4-nitroanilide acetate
Description: (§1) To show the inhibition of the catalytic activity of tryptase one may use chromogenic peptide substrates. The inhibition of the amidolytic activity of tryptase by the compounds described above was shown as follows. The measurements were carried out at room temperature in microtiter plates. The compounds were dissolved in dimethylsulfoxide and 5 μl of this solution were added to a 2.8 nM solution of human recombinant tryptase in a Hepes buffer (pH: 7.8 In analogy to example 1 and using 100 mM Hepes, 140 mM NaCl, 0.1% PEG 6000, 0.05% Tween 80 and 200 nM heparin). Finally 750 μM of tosyl-glycyl-prolyl-lysine-4-nitranilide acetate in Hepes buffer were added and the hydrolysis of the substrate was followed with a spektrophometer. The same method but using N-methoxycarbonyl-D-norleucyl-glycyl-L-arginine-4-nitroanilide acetate as substrate was used to determine the inhibition of the proteolytic activity of factor Xa, i.e., another serin protease, by the compounds.

[2] = target: human recombinant tryptase (Homo sapiens, UniProt Q15661); assay: inhibition of the amidolytic activity of tryptase, chromogenic peptide substrate; type: biochemical; conditions: 2.8 nM human recombinant tryptase, Hepes buffer pH 7.8, 200 nM heparin, substrate tosyl-glycyl-prolyl-lysine-4-nitranilide acetate, room temperature
Description: as §1

Chain of factor Xa (P00742 235-488 limits assumed): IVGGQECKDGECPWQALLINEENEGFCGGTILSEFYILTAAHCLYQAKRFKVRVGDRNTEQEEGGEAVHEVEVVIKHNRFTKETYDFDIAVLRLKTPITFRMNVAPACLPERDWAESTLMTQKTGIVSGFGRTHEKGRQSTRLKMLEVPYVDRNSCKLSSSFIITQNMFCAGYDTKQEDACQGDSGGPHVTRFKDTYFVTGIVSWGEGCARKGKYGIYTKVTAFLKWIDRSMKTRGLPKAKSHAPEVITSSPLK
Chain of factor Xa (P00742 41-179 partner limits assumed): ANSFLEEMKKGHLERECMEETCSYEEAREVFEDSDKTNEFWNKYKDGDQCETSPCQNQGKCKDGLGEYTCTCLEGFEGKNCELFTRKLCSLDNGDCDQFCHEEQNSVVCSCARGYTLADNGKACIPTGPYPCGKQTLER
Chain of human recombinant tryptase (Q15661 31-275): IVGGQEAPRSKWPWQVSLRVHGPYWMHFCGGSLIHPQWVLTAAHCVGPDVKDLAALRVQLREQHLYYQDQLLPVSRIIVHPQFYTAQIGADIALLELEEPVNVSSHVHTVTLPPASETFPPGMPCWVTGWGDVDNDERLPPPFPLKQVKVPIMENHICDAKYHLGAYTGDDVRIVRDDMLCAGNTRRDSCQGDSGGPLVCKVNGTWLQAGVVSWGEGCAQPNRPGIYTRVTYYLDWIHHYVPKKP

| Compound | IC50 [1] | IC50 [2] |
| --- | --- | --- |
| N=C(N)c1cccc(NCC(=O)NCC(=O)NCCc2c[nH]c3ccccc23)c1 [Example 2, 2-({3-[amino(imino)methyl]phenyl}amino)-N-(2-{[2-(1H-indol-3-yl)ethyl]amino}-2-oxoethyl)acetamide hydrochloride] | 6.7 µM | < 0.09 µM |
| CC(Nc1cccc(C(=N)N)c1)C(=O)NCC(=O)NCCc1c[nH]c2ccccc12 (stereo not drawn) [Example 3, 2-({3-[amino(imino)methyl]phenyl}amino)-N-(2-{[2-(1H-indol-3-yl)ethyl]amino}-2-oxoethyl)propanamide hydrochloride] | 21.9 µM | < 0.09 µM |
| N=C(N)c1cccc(NC(C(=O)NCC(=O)NCCc2c[nH]c3ccccc23)c2cc[nH]n2)c1 (stereo not drawn) [Example 4, 2-({3-[amino(imino)methyl]phenyl}amino)-N-(2-{[2-(1H-indol-3-yl)ethyl]amino}-2-oxoethyl)-2-(1H-pyrazol-3-yl)acetamide hydrochloride] | 26.4 µM | < 0.09 µM |
| CCOC(=O)C(Nc1cccc(C(=N)N)c1)C(=O)NC(C(=O)NCCc1c[nH]c2ccccc12)C(C)C (stereo not drawn) [Example 5, ethyl 2-({3-[amino(imino)methyl]phenyl}amino)-3-{[1-({[2-(1H-indol-3-yl)ethyl]amino}carbonyl)-2-methylpropyl]amino}-3-oxopropanoate hydrochloride] | 5.7 µM | < 0.09 µM |
| COc1ccc(CNC(=O)C(C)NC(=O)CNCc2ccc(C(=N)N)cc2)cc1OC (stereo not drawn) [Example 6, 2-({[({4-[amino(imino)methyl]phenyl}methyl)amino]acetyl}amino)-N-{[3,4-bis(methyloxy)phenyl]methyl}propanamide hydrochloride] | > 110 µM | < 0.09 µM |
| COC(=O)c1ccc(C(NCc2ccc(C(=N)N)cc2)C(=O)NC(C(=O)NCCc2c[nH]c3ccccc23)C(C)C)cc1 (stereo not drawn) [Example 7, methyl 4-(1-[({4-[amino(imino)methyl]phenyl}methyl)amino]-2-{[1-({[2-(1H-indol-3-yl)ethyl]amino}carbonyl)-2-methylpropyl]amino}-2-oxoethyl)benzoate hydrochloride] | > 110 µM | < 0.09 µM |
| N=C(N)c1cccc(NC(CO)C(=O)NCC(=O)NCCc2c[nH]c3ccccc23)c1 (stereo not drawn) [Example 8, 2-({3-[amino(imino)methyl]phenyl}amino)-3-hydroxy-N-(2-{[2-(1H-indol-3-yl)ethyl]amino}-2-oxoethyl)propanamide hydrochloride] | 7.8 µM | < 0.09 µM |
| N=C(N)c1cccc(NCC(=O)NCC(=O)NCCc2ccc(O)cc2)c1 [Example 9, 2-({3-[amino(imino)methyl]phenyl}amino)-N-(2-{[2-(4-hydroxyphenyl)ethyl]amino}-2-oxoethyl)acetamide hydrochloride] | 2.4 µM | < 0.09 µM |
| CC(C)C(Nc1cccc(C(=N)N)c1)C(=O)NCC(=O)NCCc1c[nH]c2ccccc12 (stereo not drawn) [Example 10, 2-({3-[amino(imino)methyl]phenyl}amino)-N-(2-{[2-(1H-indol-3-yl)ethyl]amino}-2-oxoethyl)-3-methylbutanamide hydrochloride] | 55 µM | < 0.09 µM |
| CC(NC(=O)CNc1cccc(C(=N)N)c1)C(=O)NC1CCCCC1 (stereo not drawn) [Example 11, 2-{[({3-[amino(imino)methyl]phenyl}amino)acetyl]amino}-N-cyclohexylpropanamide hydrochloride] | 4.45 µM | < 0.09 µM |
| CC(C)C(NC(=O)CNc1cccc(C(=N)N)c1)C(=O)NCCc1c[nH]c2ccccc12 (stereo not drawn) [Example 12, 2-{[({3-[amino(imino)methyl]phenyl}amino)acetyl]amino}-N-[2-(1H-indol-3-yl)ethyl]-3-methylbutanamide hydrochloride] | 14.5 µM | < 0.09 µM |
| CC(NCc1ccc(C(=N)N)cc1)C(=O)NCC(=O)NCCc1ccccn1 (stereo not drawn) [Example 13, 2-[({4-[amino (imino)methyl]phenyl}methyl)amino]-N-(2-oxo-2-{[2-(2-pyridinyl)ethyl]amino}ethyl)propanamide hydrochloride] | > 110 µM | < 0.09 µM |
| N=C(N)c1cccc(NCC(=O)NCC(=O)NCc2ccccc2)c1 [Example 14, 2-({3-[amino (imino)methyl]phenyl}amino)-N-{2-oxo-2-[(phenylmethyl)amino]ethyl}acetamide hydrochloride] | 7.15 µM | < 0.09 µM |
| N=C(N)c1cccc(NC(CO)C(=O)NCC(=O)N2CCc3ccccc3C2)c1 (stereo not drawn) [Example 15, 2-({3-[amino (imino)methyl]phenyl}amino)-N-[2-(3,4-dihydro-2 (1H)-isoquinolinyl)-2-oxoethyl]-3-hydroxypropanamide hydrochloride] | 3.95 µM | < 0.09 µM |
| COc1ccc(CNC(=O)CNC(=O)CNc2cccc(C(=N)N)c2)cc1OC [Example 16, 2-({3-[amino (imino)methyl]phenyl}amino)-N-[2-({[3,4-bis(methyloxy)phenyl]methyl]amino}-2-oxoethyl)acetamide hydrochloride] | 9.2 µM | < 0.09 µM |
| CC(C)C(NC(=O)C(CO)Nc1cccc(C(=N)N)c1)C(=O)NCc1ccccc1 (stereo not drawn) [Example 17, 2-{[2-({3-[amino(imino)methyl]phenyl}amino)-3-hydroxypropanoyl]amino}-3-methyl-N-(phenylmethyl)butanamide hydrochloride] | 7.6 µM | < 0.09 µM |
| CC(C)C(NC(=O)C(CO)Nc1cccc(C(=N)N)c1)C(=O)NCc1ccc2c(c1)OCO2 (stereo not drawn) [Example 18, 2-{[2-({3-[amino(imino)methyl]phenyl}amino)-3-hydroxypropanoyl]amino}-N-(1,3-benzodioxol-5-ylmethyl)-3-methylbutanamide hydrochloride] | 8.6 µM | < 0.09 µM |
| CC(C)C(NC(=O)C(CO)Nc1cccc(C(=N)N)c1)C(=O)NCCC(c1ccccc1)c1ccccc1 (stereo not drawn) [Example 19, 2-{[2-({3-[amino(imino)methyl]phenyl}amino)-3-hydroxypropanoyl]amino}-N-(3,3-diphenylpropyl)-3-methylbutanamide hydrochloride] | 8.6 µM | < 0.09 µM |
| N=C(N)c1ccc(CNC(CO)C(=O)NCC(=O)NCCc2ccccn2)cc1 (stereo not drawn) [Example 20, 2-[({4-[amino(imino)methyl]phenyl}methyl)amino]-3-hydroxy-N-(2-oxo-2-{[2-(2-pyridinyl)ethyl]amino}ethyl)propanamide hydrochloride] | > 110 µM | < 0.09 µM |
| N=C(N)c1ccc(CNC(C(=O)NCC(=O)NCCc2ccccn2)c2ccc[nH]2)cc1 (stereo not drawn) [Example 21, 2-[({4-(amino(imino)methyl)phenyl}methyl)amino]-N-(2-oxo-2-{[2-(2-pyridinyl)ethyl]amino}ethyl)-2-(1H-pyrrol-2-yl)acetamide hydrochloride] | 7.7 µM | < 0.09 µM |
| N=C(N)c1ccc(CNC(C(=O)NCC(=O)NCc2cccnc2)c2ccc[nH]2)cc1 (stereo not drawn) [Example 22, 2-[({4-[amino(imino)methyl]phenyl}methyl)amino]-N-{2-oxo-2-[(3-pyridinylmethyl)amino]ethyl)-2-(1H-pyrrol-2-yl)acetamide hydrochloride] | 15 µM | < 0.09 µM |
| N=C(N)c1ccc(CNCC(=O)NCC(=O)N2CCN(Cc3ccc4c(c3)OCO4)CC2)cc1 [Example 23, 2-[({4-(amino(imino)methyl)phenyl)methyl)amino]-N-(2-[4-(1,3-benzodioxol-5-ylmethyl)-1-piperazinyl]-2-oxoethyl}acetamide hydrochloride] | > 110 µM | < 0.09 µM |
| COc1ccccc1N1CCN(C(=O)CNC(=O)CNc2cccc(C(=N)N)c2)CC1 [Example 24, 2-({3-[amino(imino)methyl]phenyl}amino)-N-(2-{4-[2-(methyloxy)phenyl]-1-piperazinyl}-2-oxoethyl)acetamide hydrochloride] | 1.6 µM | < 0.09 µM |
| N=C(N)c1cccc(NCC(=O)NCC(=O)NCCN2CCOCC2)c1 [Example 25, 2-({3-[amino(imino)methyl]phenyl}amino)-N-(2-([2-(4-morpholinyl)ethyl]amino}-2-oxoethyl)acetamide hydrochloride] | 22.8 µM | < 0.09 µM |
